# Compound: C[C@]1(c2nc3c(C(N)=O)cccc3[nH]2)CCCN1 [Veliparib] + N=C(N)NC(=N)NCCc1ccccc1 [Phenformin] (partner 250 µM)
# Assay: relative viability (nuclei count vs DMSO), 5 days (fraction); higher = more cells survive
# Settings: first compound 0.02 µM
# Procedure, shortened: (§1)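 Relative viability divides the nuclei count in treated wells by that in vehicle wells. Lung cancer cell lines were seeded in 1536-well plates, dosed by pin tool the next day, and fixed and stained after 5 days in one step with final 0.05% Triton X-100, 1% formaldehyde and 1 ug/ml Hoechst. Dosing was a single drug or a fixed anchor-drug dose plus five library-drug doses (not always all listed) in √10 steps, and values are medians of duplicate plates imaged at 4×.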
row,Cell Line,relative viability
1,NCI-H2342,0.583
2,LU99A,0.928
3,NCI-H1975,0.434
4,H3255,0.365
5,NCI-H2023,0.39
6,NCI-H2405,0.388
7,SK-LU-1,0.588
8,NCI-H1734,0.358
9,NCI-H1437,0.311
10,NCI-H596,0.633
11,NCI-H460,0.361
12,EMC-BAC-2,0.442
13,NCI-H2009,0.455
14,COR-L 105,0.386
15,NCI-H1395,0.355
16,NCI-H520,0.709
17,NCI-H358,0.226
18,HCC-78,0.688
19,EKVX,0.194
20,EPLC-272H,0.304
21,LXF-289,0.521
22,NCI-H1563,0.594

# Same assay, conditions: first compound 0.06325 µM
row,Cell Line,relative viability
1,NCI-H2342,0.589
2,NCI-H1623,0.514
3,LU99A,0.838
4,NCI-H1975,0.395
5,H3255,0.367
6,NCI-H2023,0.417
7,NCI-H2405,0.371
8,SK-LU-1,0.524
9,NCI-H1734,0.379
10,NCI-H1437,0.237
11,ABC-1,0.227
12,NCI-H596,0.744
13,HCC-15,0.457
14,NCI-H460,0.491
15,EMC-BAC-2,0.532
16,NCI-H2009,0.452
17,COR-L 105,0.464
18,NCI-H1395,0.421
19,NCI-H520,0.558
20,NCI-H358,0.316
21,HCC-78,0.711
22,EKVX,0.162
23,NCI-H1650,0.473
24,EPLC-272H,0.307
25,LK-2,0.516
26,PC-14,0.526
27,LXF-289,0.52
28,A549,0.209
29,NCI-H1563,0.638

# Same assay, conditions: first compound 0.2 µM
row,Cell Line,relative viability
1,NCI-H2342,0.506
2,NCI-H1623,0.605
3,LU99A,0.612
4,NCI-H1975,0.407
5,H3255,0.36
6,NCI-H2023,0.39
7,NCI-H2405,0.411
8,SK-LU-1,0.544
9,NCI-H1734,0.383
10,NCI-H1437,0.357
11,ABC-1,0.265
12,NCI-H596,0.809
13,HCC-15,0.452
14,NCI-H460,0.484
15,EMC-BAC-2,0.609
16,NCI-H2009,0.483
17,COR-L 105,0.504
18,NCI-H1395,0.437
19,NCI-H520,0.761
20,NCI-H358,0.337
21,HCC-78,0.71
22,EKVX,0.249
23,NCI-H1650,0.519
24,EPLC-272H,0.332
25,LK-2,0.594
26,PC-14,0.647
27,LXF-289,0.533
28,A549,0.166
29,NCI-H1563,0.686

# Same assay, conditions: first compound 0.6325 µM
row,Cell Line,relative viability
1,NCI-H2342,0.579
2,NCI-H1623,0.583
3,LU99A,0.75
4,NCI-H1975,0.368
5,H3255,0.322
6,NCI-H2023,0.384
7,NCI-H2405,0.393
8,SK-LU-1,0.512
9,NCI-H1734,0.33
10,NCI-H1437,0.253
11,ABC-1,0.233
12,NCI-H596,0.725
13,HCC-15,0.431
14,NCI-H460,0.489
15,EMC-BAC-2,0.484
16,NCI-H2009,0.457
17,COR-L 105,0.492
18,NCI-H1395,0.393
19,NCI-H520,0.538
20,NCI-H358,0.32
21,HCC-78,0.758
22,EKVX,0.221
23,NCI-H1650,0.404
24,EPLC-272H,0.292
25,LK-2,0.543
26,PC-14,0.59
27,LXF-289,0.499
28,A549,0.143
29,NCI-H1563,0.643

# Same assay, conditions: first compound 2 µM
row,Cell Line,relative viability
1,NCI-H2342,0.587
2,NCI-H1623,0.545
3,LU99A,0.976
4,NCI-H1975,0.397
5,H3255,0.329
6,NCI-H2023,0.411
7,NCI-H2405,0.308
8,SK-LU-1,0.506
9,NCI-H1734,0.455
10,NCI-H1437,0.299
11,ABC-1,0.288
12,NCI-H596,0.747
13,HCC-15,0.472
14,NCI-H460,0.52
15,EMC-BAC-2,0.575
16,NCI-H2009,0.473
17,COR-L 105,0.451
18,NCI-H1395,0.408
19,NCI-H520,0.578
20,NCI-H358,0.351
21,HCC-78,0.544
22,EKVX,0.222
23,NCI-H1650,0.34
24,EPLC-272H,0.333
25,LK-2,0.481
26,PC-14,0.435
27,LXF-289,0.539
28,A549,0.185
29,NCI-H1563,0.667

# Compound: COC1=CC=C(C=C1)CN2C=CC3=C2C=C(C=C3)C(=O)NO + COc1cccc2cc(-c3nc([C@H]4CC[C@H](C(=O)O)CC4)n4ncnc(N)c34)[nH]c12 [OSI-027] (partner 0.5 µM)
# Assay: as above
# Settings: first compound 0.08 µM
# Procedure, shortened: as §1
row,Cell Line,relative viability
1,NCI-H2342,0.61
2,NCI-H1623,0.435
3,NCI-H1975,0.724
4,H3255,0.473
5,NCI-H2023,0.369
6,NCI-H2405,0.633
7,SK-LU-1,0.358
8,NCI-H1437,0.774
9,NCI-H596,0.79
10,HCC-15,0.625
11,NCI-H460,0.547
12,EMC-BAC-2,0.371
13,NCI-H2009,0.647
14,COR-L 105,0.524
15,NCI-H1395,0.562
16,NCI-H520,0.218
17,NCI-H1648,0.246
18,HCC-78,0.4
19,EKVX,0.669
20,NCI-H1650,0.586
21,EPLC-272H,0.223
22,PC-14,0.89
23,NCI-H1563,0.626

# Same assay, conditions: first compound 0.253 µM
row,Cell Line,relative viability
1,NCI-H2342,0.66
2,NCI-H1623,0.727
3,LU99A,0.326
4,NCI-H1975,0.703
5,H3255,0.58
6,NCI-H2023,0.406
7,NCI-H2405,0.65
8,SK-LU-1,0.316
9,NCI-H1734,0.641
10,NCI-H1437,0.907
11,ABC-1,0.57
12,NCI-H596,0.779
13,HCC-15,0.715
14,NCI-H460,0.721
15,EMC-BAC-2,0.371
16,NCI-H2009,0.714
17,COR-L 105,0.738
18,NCI-H1395,0.579
19,NCI-H520,0.278
20,NCI-H1648,0.245
21,NCI-H358,0.861
22,HCC-78,0.344
23,EKVX,0.653
24,NCI-H1650,0.682
25,LK-2,0.289
26,PC-14,0.87
27,LXF-289,0.823
28,NCI-H1563,0.812

# Same assay, conditions: first compound 0.8 µM
row,Cell Line,relative viability
1,NCI-H2342,0.603
2,NCI-H1623,0.468
3,LU99A,0.295
4,NCI-H1975,0.742
5,H3255,0.606
6,NCI-H2023,0.418
7,NCI-H2405,0.638
8,SK-LU-1,0.34
9,NCI-H1734,0.558
10,NCI-H1437,0.897
11,ABC-1,0.484
12,NCI-H596,0.768
13,HCC-15,0.672
14,NCI-H460,0.664
15,EMC-BAC-2,0.425
16,NCI-H2009,0.619
17,COR-L 105,0.753
18,NCI-H1395,0.628
19,NCI-H520,0.329
20,NCI-H1648,0.246
21,NCI-H358,0.722
22,HCC-78,0.341
23,EKVX,0.72
24,NCI-H1650,0.714
25,EPLC-272H,0.313
26,LK-2,0.244
27,PC-14,0.739
28,LXF-289,0.896
29,NCI-H1563,0.739

# Same assay, conditions: first compound 2.53 µM
row,Cell Line,relative viability
1,NCI-H2342,0.57
2,NCI-H1623,0.43
3,LU99A,0.259
4,NCI-H1975,0.723
5,H3255,0.545
6,NCI-H2023,0.372
7,NCI-H2405,0.664
8,SK-LU-1,0.284
9,NCI-H1734,0.608
10,NCI-H1437,0.807
11,ABC-1,0.488
12,NCI-H596,0.721
13,HCC-15,0.742
14,NCI-H460,0.607
15,EMC-BAC-2,0.381
16,NCI-H2009,0.618
17,COR-L 105,0.626
18,NCI-H1395,0.667
19,NCI-H520,0.319
20,NCI-H1648,0.262
21,NCI-H358,0.739
22,HCC-78,0.355
23,EKVX,0.72
24,NCI-H1650,0.568
25,EPLC-272H,0.257
26,LK-2,0.195
27,PC-14,0.857
28,LXF-289,0.908
29,NCI-H1563,0.724

# Same assay, conditions: first compound 8 µM
row,Cell Line,relative viability
1,NCI-H2342,0.655
2,NCI-H1623,0.376
3,LU99A,0.258
4,NCI-H1975,0.638
5,H3255,0.553
6,NCI-H2023,0.344
7,NCI-H2405,0.606
8,SK-LU-1,0.352
9,NCI-H1734,0.527
10,NCI-H1437,0.907
11,ABC-1,0.393
12,NCI-H596,0.598
13,HCC-15,0.529
14,NCI-H460,0.595
15,EMC-BAC-2,0.33
16,NCI-H2009,0.491
17,COR-L 105,0.445
18,NCI-H1395,0.549

# — the supplement of paper PMC10307832
